Columns and labels:
[1] = in vivo; cited from earlier work
CB2 = CB2 (Homo sapiens, UniProt P34972); conditions: cited from earlier work
[2] = Tolerability of CBD and THCV daily doses; type: in vivo
CB1 = CB1 (Homo sapiens, UniProt P21554); conditions: cited from earlier work
Chain of CB1 (P21554 whole entry, species assumed): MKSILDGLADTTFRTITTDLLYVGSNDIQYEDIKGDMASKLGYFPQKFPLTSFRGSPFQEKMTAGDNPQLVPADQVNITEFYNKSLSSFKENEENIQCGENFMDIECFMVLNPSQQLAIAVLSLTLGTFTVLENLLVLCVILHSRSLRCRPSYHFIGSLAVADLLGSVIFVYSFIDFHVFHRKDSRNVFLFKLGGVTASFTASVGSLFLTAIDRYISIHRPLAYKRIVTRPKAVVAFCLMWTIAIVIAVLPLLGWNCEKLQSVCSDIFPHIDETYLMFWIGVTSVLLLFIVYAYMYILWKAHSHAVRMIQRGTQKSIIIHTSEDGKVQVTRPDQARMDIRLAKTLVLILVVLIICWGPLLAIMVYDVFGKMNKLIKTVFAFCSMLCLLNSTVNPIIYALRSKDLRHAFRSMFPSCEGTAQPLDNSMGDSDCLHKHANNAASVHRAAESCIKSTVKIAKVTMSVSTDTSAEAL

Chain of CB2 (P34972 whole entry, species assumed): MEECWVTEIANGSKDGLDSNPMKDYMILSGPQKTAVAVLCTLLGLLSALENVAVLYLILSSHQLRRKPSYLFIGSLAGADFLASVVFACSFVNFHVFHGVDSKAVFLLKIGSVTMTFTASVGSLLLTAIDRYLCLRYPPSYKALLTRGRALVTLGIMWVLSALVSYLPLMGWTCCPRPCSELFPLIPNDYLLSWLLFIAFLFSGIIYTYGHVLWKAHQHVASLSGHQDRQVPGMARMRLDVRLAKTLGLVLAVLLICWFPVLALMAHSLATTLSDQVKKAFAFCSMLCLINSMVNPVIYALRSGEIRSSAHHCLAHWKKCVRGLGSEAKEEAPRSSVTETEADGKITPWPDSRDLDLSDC

Q: Which reducing spasticity [1] does the source give for `CCCCCCC(C)(C)c1cc(O)c2c(c1)OC(C)(C)[C@@H]1CCC(=O)C[C@@H]21` (racemic) [Cesamet, (±)-trans-3-(1,1-dimethylheptyl)-6,6a,7,8,10,10a-hexahydro-lhydroxy-6-6-dimethyl-9H-dibenzo[b,d]pyran-9-one] here?
A: The reducing spasticity was “positive results”.

Q: With `CCCCCCC(C)(C)c1cc(O)c2c(c1)oc(=O)c1ccc(OC)cc12` [AM-1710] as the molecule, how does the “selectivity for CB2 over CB1” value (CB2) read?
A: Its value is 54 ×.

Q: For `C=C(C)[C@@H]1CCC(C)=C[C@H]1c1c(O)cc(CCCCC)cc1O` [CBD, 2-[(1R,6R)-6-isopropenyl-3-methylcyclohex-2-en-1-yl]-5-pentylbenzene-1,3-diol], which tolerability ([2]; 200 mg CBD per day) is on record?
A: Its tolerability is “well tolerated”.

Q: For `CCCn1cc(C(=O)c2ccc(C)c3ccccc23)c2ccccc21` [JWH-120], which “selectivity for CB2” value (CB2) is on record?
A: The value was 173 fold.

Q: Which “selectivity for CB2 over the CB1 subtype” value (CB2) does the source give for `CCCn1c(C)c(C(=O)c2ccc(C)c3ccccc23)c2ccccc21` [JWH-148] here?
A: The value was “more than 8 times”.

Q: Which “selectivity for CB2” value (CB2) does the source give for `CCCCCCC(C)(C)c1cc(OC)c2c(c1)OC(C)(C)C1CCC(O)CC21` (stereo not drawn) [JWH-350, 11-nor-1-methoxy-3-(1′,1′-dimethylheptyl)-9α-hydroxyhexahydrocannabinol] here?
A: Its value is 33 fold.

Q: Which results are given for `CCCCCn1cc(C(=O)c2ccc(Cl)c3ccccc23)c2ccccc21` [JWH-398]?
A: Ki (CB2): 2.8 nM; Ki (CB1): 2.3 nM

Q: For `CCCCCn1cc(C(=O)c2cccc3cccc(Br)c23)c2ccccc21` [JWH-424], which Ki (CB2) is on record?
A: Its Ki is 5.44 nM.

Q: And the Ki (CB1)?
A: The Ki was 20.9 nM.

Q: With `CCCCCc1cc(O)c2c(c1)OC(C)(C)[C@@H]1CCC(C)=C[C@@H]21` [Marinol] as the molecule, how does the reducing spasticity [1] read?
A: The reducing spasticity was “positive results”.

Q: For `CCCCC/C=C\C/C=C\C/C=C\C/C=C\CCCC(=O)N[C@H](C)CO` [Methanandamide], which Ki (CB1) is on record?
A: The Ki was 17.9 nM.

Q: With `CCCc1cc(O)c2c(c1)OC(C)(C)[C@@H]1CCC(C)=C[C@@H]21` [THCV, tetrahydrocannbivarin] as the molecule, how does the tolerability ([2]; 10 mg THCV per day) read?
A: The tolerability was “well tolerated”.

From patent US20220047525A1, “TRANSDERMAL PHARMACEUTICAL FORMULATIONS OF NABILONE ALONE AND IN COMBINATION WITH CANNABINOIDS” (Pike Therapeutics, Inc., priority 2020, published 2022)
